In ChEMBL document CHEMBL4627329, “Regioselective synthesis and evaluation of 2-amino 3-cyano chromene-chrysin hybrids as potential anticancer agents” (Bioorg Med Chem Lett, 2020) one finds IC50 and Activity data, which are given here for 19 molecules.

Experiment [1] deals with K562. Briefly: Antiproliferative activity against human K562 cells assessed as inhibition of cell proliferation incubated for 48 hrs by MTT assay. The experiment is classed as functional, cell-based. The following applies: K562, 48 h.
For the next experiment, the system named is PC-3. Briefly: Antiproliferative activity against human PC3 cells assessed as inhibition of cell proliferation incubated for 48 hrs by MTT assay. The following applies: PC-3, 48 h. Format: functional, cell-based.
Another experiment has as its system A549. Kind of experiment: Antiproliferative activity against human A549 cells assessed as inhibition of cell proliferation incubated for 48 hrs by MTT assay. Format: functional, cell-based. The following applies: A549, 48 h.
The subject of a further experiment is NCI-H1299. Kind of experiment: Antiproliferative activity against human NCI-H1299 cells assessed as inhibition of cell proliferation incubated for 48 hrs by MTT assay. Format: functional, cell-based. The following applies: NCI-H1299, 48 h.
A further experiment deals with MRC5. Briefly: Cytotoxicity against human MRC5 cells assessed as inhibition of cell proliferation incubated for 48 hrs by MTT assay. Format: cell-based. The following applies: MRC5, 48 h.
The subject of experiment [2] is K562. Briefly: Induction of apoptosis in human K562 cells at 5 to 20 uM measured after 24 hrs by AO-EB staining based fluorescence microscopy analysis. The experiment is classed as functional, cell-based.
The subject of experiment [3] is K562. Briefly: Induction of apoptosis in human K562 cells at assessed as live cells at 5 uM measured after 24 hrs by AnnexinV-FITC/propidium iodide staining based flow cytometry (reference value: 96 %). The experiment is classed as functional.
For experiment [4], the system named is K562. Kind of experiment: Induction of apoptosis in human K562 cells at assessed as early apoptotic cells at 5 uM measured after 24 hrs by AnnexinV-FITC/propidium iodide staining based flow cytometry (reference value: 1.45 %). The experiment is classed as functional.
Experiment [5] has as its system K562. Kind of experiment: Induction of apoptosis in human K562 cells at assessed as late apoptotic cells at 5 uM measured after 24 hrs by AnnexinV-FITC/propidium iodide staining based flow cytometry (reference value: 2.06 %). Format: functional.
For experiment [6], the system named is K562. Briefly: Induction of apoptosis in human K562 cells at assessed as necrotic cells at 5 uM measured after 24 hrs by AnnexinV-FITC/propidium iodide staining based flow cytometry (reference value: 0.518 %). The experiment is classed as functional.
In experiment [7] the test system is K562. Briefly: Induction of apoptosis in human K562 cells at assessed as live cells at 10 uM measured after 24 hrs by AnnexinV-FITC/propidium iodide staining based flow cytometry (reference value: 96 %). Format: functional.
For experiment [8], the system named is K562. Briefly: Induction of apoptosis in human K562 cells at assessed as early apoptotic cells at 10 uM measured after 24 hrs by AnnexinV-FITC/propidium iodide staining based flow cytometry (reference value: 1.45 %). Format: functional.
For experiment [9], the system named is K562. Kind of experiment: Induction of apoptosis in human K562 cells at assessed as late apoptotic cells at 10 uM measured after 24 hrs by AnnexinV-FITC/propidium iodide staining based flow cytometry (reference value: 2.06 %). The experiment is classed as functional.
Experiment [10] has as its system K562. Kind of experiment: Induction of apoptosis in human K562 cells at assessed as necrotic cells at 10 uM measured after 24 hrs by AnnexinV-FITC/propidium iodide staining based flow cytometry (reference value: 0.518 %). The experiment is classed as functional.
Experiment [11] relates to K562. Briefly: Induction of apoptosis in human K562 cells at assessed as live cells at 20 uM measured after 24 hrs by AnnexinV-FITC/propidium iodide staining based flow cytometry (reference value: 96 %). The experiment is classed as functional.
The subject of experiment [12] is K562. Kind of experiment: Induction of apoptosis in human K562 cells at assessed as early apoptotic cells at 20 uM measured after 24 hrs by AnnexinV-FITC/propidium iodide staining based flow cytometry (reference value: 1.45 %). Format: functional.
The subject of experiment [13] is K562. Briefly: Induction of apoptosis in human K562 cells at assessed as late apoptotic cells at 20 uM measured after 24 hrs by AnnexinV-FITC/propidium iodide staining based flow cytometry (reference value: 2.06 %). The experiment is classed as functional.
Experiment [14] has as its system K562. Kind of experiment: Induction of apoptosis in human K562 cells at assessed as necrotic cells at 20 uM measured after 24 hrs by AnnexinV-FITC/propidium iodide staining based flow cytometry (reference value: 0.518 %). The experiment is classed as functional.
Experiment [15] has as its system K562. Kind of experiment: Induction of apoptosis in human K562 cells measured after 24 hrs by AnnexinV-FITC/propidium iodide staining based flow cytometry. The experiment is classed as functional, cell-based.
Experiment [16] deals with K562. Kind of experiment: Cell cycle arrest in human K562 cells assessed as increase in cell population at G1 phase at 5 uM measured after 24 hrs by flow cytometry analysis. Format: functional, cell-based.
For experiment [17], the system named is K562. Briefly: Cell cycle arrest in human K562 cells assessed as decrease in cell population at S phase at 5 uM measured after 24 hrs by flow cytometry analysis. The experiment is classed as functional, cell-based.
Experiment [18] deals with K562. Kind of experiment: Induction of apoptosis in human K562 cells assessed as downregulation of Bcl-2 protein measured after 24 hrs by Western blot analysis. Format: functional, cell-based.
The subject of experiment [19] is K562. Kind of experiment: Induction of apoptosis in human K562 cells assessed as upregulation of Bax protein expression measured after 24 hrs by Western blot analysis. The experiment is classed as functional, cell-based.

Activity calls are given as the source filed them. The calls are words filed in the database; no cut-off is given here. Where only a bound is given, the exact number is not on record here.

Turning to `COc1ccc(-c2cc(=O)c3c(O)c4c(cc3o2)OC(N)=C(C#N)C4c2ccc(F)cc2)c(OC)c1` (stereo unspecified), the IC50 is 45.2 µM in the experiment on K562 [1], over 50 µM with PC-3, over 50 µM in the experiment on A549 and 44.8 µM in the experiment on NCI-H1299.

For `N#CC1=C(N)Oc2cc3oc(-c4ccccc4)cc(=O)c3c(O)c2C1c1cccc(F)c1` (stereo unspecified), the IC50 in the experiment with K562 [1] was 18.6 µM; in the experiment on PC-3, 30.4 µM; in the experiment with A549, 20.5 µM; with NCI-H1299, 40.8 µM.

`N#CC1=C(N)Oc2cc3oc(-c4ccccc4)cc(=O)c3c(O)c2C1c1cccc(Br)c1` (stereo unspecified): the IC50 is 6.41 µM in the experiment with K562 [1]; 36.8 µM in the experiment on PC-3; over 50 µM in the experiment on A549; 24.2 µM in the experiment on NCI-H1299; over 100 µM in the experiment on MRC5. Moreover, the outcome with K562 [2] was Active. For the same molecule, the Activity in the experiment with K562 [3] was found to be 90.2%; in the experiment on K562 [4] it was 5.87%; in the experiment on K562 [5], 2.85%; with K562 [6] it was 1.06%; with K562 [7], 77.6%; in the experiment with K562 [8], 14.4%. In addition, the Activity with K562 [9] is 5.23%; in the experiment on K562 [10], 2.84%; in the experiment with K562 [11], 62.4%; in the experiment on K562 [12] it was 27.6%; with K562 [13], 7.58%; in the experiment on K562 [14], 2.44%. For the same molecule, the Activity result in the experiment on K562 [15], with K562 [16], with K562 [17], with K562 [18] and with K562 [19] was “Dose-dependent effect” throughout.

In the case of `Cc1ccc(C2C(C#N)=C(N)Oc3cc4oc(-c5ccccc5)cc(=O)c4c(O)c32)c(C)c1` (stereo unspecified), the concentration for half-maximal inhibition (IC50) is 19.7 µM with K562 [1], over 50 µM in the experiment with PC-3, over 50 µM in the experiment on A549 and 42 µM in the experiment on NCI-H1299.

On to `N#CC1=C(N)Oc2cc3oc(-c4ccccc4)cc(=O)c3c(O)c2C1c1ccccc1Cl` (stereo unspecified), for which the IC50 in the experiment on K562 [1] was 14.4 µM; in the experiment on PC-3 it was over 50 µM; in the experiment with A549, over 50 µM; in the experiment with NCI-H1299, 43.4 µM.

Take `COc1ccccc1C1C(C#N)=C(N)Oc2cc3oc(-c4ccccc4)cc(=O)c3c(O)c21` (stereo unspecified): the IC50 in the experiment on K562 [1] was 20.2 µM; in the experiment on PC-3, over 50 µM; with A549 it was over 50 µM; with NCI-H1299 it was over 50 µM.

Consider `N#CC1=C(N)Oc2cc3oc(-c4ccccc4)cc(=O)c3c(O)c2C1c1ccc(Cl)cc1` (stereo unspecified), for which the IC50 in the experiment on K562 [1] was 12.4 µM; in the experiment on PC-3 it was over 50 µM; in the experiment with A549, over 50 µM; in the experiment on NCI-H1299, 33.1 µM.

As to `COc1c2c(c(O)c3c(=O)cc(-c4ccccc4)oc13)C(c1ccc(C)cc1)C(C#N)=C(N)O2` (stereo unspecified), the IC50 in the experiment on K562 [1], in the experiment on PC-3, with A549 and in the experiment on NCI-H1299 was over 50 µM throughout.

For the molecule `N#CC1=C(N)Oc2cc3oc(-c4ccccc4)cc(=O)c3c(O)c2C1c1ccccc1F` (stereo unspecified), the IC50 was 28.1 µM with K562 [1], 43.2 µM in the experiment on PC-3, 44 µM in the experiment on A549 and 45.3 µM with NCI-H1299.

Consider `N#CC1=C(N)Oc2cc3oc(-c4ccccc4)cc(=O)c3c(O)c2C1c1ccccc1Br` (stereo unspecified), for which the IC50 was 48.8 µM in the experiment with K562 [1], over 50 µM with PC-3, over 50 µM in the experiment on A549 and over 50 µM with NCI-H1299.

Take `N#CC1=C(N)Oc2cc3oc(-c4ccccc4)cc(=O)c3c(O)c2C1c1ccc(Br)cc1` (stereo unspecified): the IC50 was 10.1 µM in the experiment on K562 [1], 46.8 µM with PC-3, over 50 µM in the experiment with A549 and 18.8 µM in the experiment with NCI-H1299.

`COc1ccc(C2C(C#N)=C(N)Oc3cc4oc(-c5ccccc5)cc(=O)c4c(O)c32)cc1` (stereo unspecified): the IC50 in the experiment with K562 [1] is 38.1 µM; with PC-3, over 50 µM; in the experiment with A549 it was over 50 µM; in the experiment on NCI-H1299 it was 40.1 µM.

In the case of `N#CC1=C(N)Oc2cc3oc(-c4ccccc4)cc(=O)c3c(O)c2C1c1ccc(F)cc1` (stereo unspecified), the IC50 with K562 [1] was 14.5 µM; with PC-3, 26.1 µM; in the experiment with A549, 15.4 µM; in the experiment with NCI-H1299, over 50 µM.

On to `N#CC1=C(N)Oc2cc3oc(-c4ccccc4)cc(=O)c3c(O)c2C1c1cccc([N+](=O)[O-])c1` (stereo unspecified), for which the IC50 in the experiment on K562 [1] was determined as 15.6 µM; in the experiment with PC-3, 41.3 µM; in the experiment with A549, 31.9 µM; in the experiment with NCI-H1299, 40.8 µM.

On to `Cc1ccc(C2C(C#N)=C(N)Oc3cc4oc(-c5ccccc5)cc(=O)c4c(O)c32)cc1` (stereo unspecified), for which the IC50 in the experiment on K562 [1] was 14.8 µM; in the experiment with PC-3, 28.4 µM; with A549 it was 48.5 µM; in the experiment on NCI-H1299 it was 28.5 µM.

`N#CC1=C(N)Oc2cc3oc(-c4ccccc4)cc(=O)c3c(O)c2C1c1ccccc1` (stereo unspecified): the IC50 is 43 µM in the experiment with K562 [1], 46.9 µM in the experiment on PC-3, 31.6 µM with A549 and over 50 µM with NCI-H1299.

In the case of `O=c1cc(-c2ccccc2)oc2cc(O)cc(O)c12` [CHRYSIN], the IC50 in the experiment on K562 [1] was over 50 µM; with PC-3 it was over 50 µM; with A549 it was over 50 µM; in the experiment on NCI-H1299 it was over 50 µM; in the experiment with MRC5, over 100 µM.

`COc1cccc(C2C(C#N)=C(N)Oc3cc4oc(-c5ccccc5)cc(=O)c4c(O)c32)c1OC` (stereo unspecified): the IC50 in the experiment with K562 [1] is 16.8 µM; with PC-3 it was over 50 µM; in the experiment with A549, over 50 µM; in the experiment with NCI-H1299 it was over 50 µM.

In the case of `CC(C)(C)c1ccc(C2C(C#N)=C(N)Oc3cc4oc(-c5ccccc5)cc(=O)c4c(O)c32)cc1` (stereo unspecified), the IC50 was 47.1 µM with K562 [1], over 50 µM in the experiment with PC-3, over 50 µM with A549 and over 50 µM in the experiment with NCI-H1299.
